Active and inactive are the calls of the source.
Columns and labels:
Nonstructural protein 1 = Nonstructural protein 1 (Influenza A virus, UniProt Q194T2); assay type: functional, Influenza A virus (A/California/07/2009(H1N1))
[1] = biological target: 72 kDa type IV collagenase (Homo sapiens, UniProt P08253); experiment: Dose Response validation of uHTS RPN11 inhibitor hits using a MMP-2 Fluorescence assay.; assay type: functional
[2] = biological target: Peroxisome proliferator-activated receptor gamma/Nuclear receptor coactivator 1 (Homo sapiens, UniProt P37231); experiment: TR-FRET dose response biochemical High Throughput Screening assay for agonists of the steroid receptor coactivator 1 (SRC-1) recruitment by the peroxisome proliferator-activated receptor gamma (PPAR gamma): non-selective agonists. [Related pubchem assays (depositor defined):AID1300, AID1808, AID504735, AID631]; assay type: protein assay
[3] = biological target: Peroxisome proliferator-activated receptor gamma/Nuclear receptor coactivator 2 (Homo sapiens, UniProt P37231); experiment: (§1) TR-FRET dose response biochemical High Throughput Screening assay for agonists of the steroid receptor coactivator 2 (SRC-2) recruitment by the peroxisome proliferator-activated receptor gamma (PPAR gamma): non-selective agonists. [Related pubchem assays: 1297, 1032 ]; assay type: functional
Ephrin type-A receptor 4 = Ephrin type-A receptor 4 (Mus musculus, UniProt Q03137); experiment: EphA4 ligand-binding antagonists – biochemical, colorimetric, mouse EphA4, primary screen (AID 689); assay type: functional
[4] = biological target: 26S proteasome non-ATPase regulatory subunit 14 (Homo sapiens, UniProt O00487); experiment: inhibition of proteasome subunit RPN11 – biochemical, fluorescence polarization, uHTS hits, confirmation (AID 602368); assay type: functional
[5] = biological target: Peroxisome proliferator-activated receptor gamma/Nuclear receptor coactivator 3 (Homo sapiens, UniProt P37231); experiment: as §1, with “3 (SRC-3)” for “2 (SRC-2)”, “1301 (Confirmation screen.), 1048 (Primary screen.)]” for “1297, 1032 ]”; assay type: functional
Prothrombin = Prothrombin (Bos taurus, UniProt P00735); experiment: thrombin protease inhibitors – biochemical, fluorescence polarization, uHTS hits, dose response (AID 602369); assay type: functional
[6] = Trypanosoma cruzi growth suppression in host cells – NIH3T3 host cells, beta-gal luminescence, confirmation (AID 2044); assay type: functional, cell-based;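 also: intracellular parasites grown in NIH/3T3 mouse fibroblasts as host cells; luminescent beta-galactosidase reporter signal from transgenic T. cruzi replicating inside host cells; inhibitors lower the luminescence signal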
[7] = viability inhibitors of stage V gametocytes – luminescence, dose response (AID 1117278); assay type: functional, cell-based;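 also: gametocytes exposed to compound for 24 hours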
[8] = NIH3T3 cell viability loss – ATP luminescence, mouse fibroblasts, counter-screen, dose response (AID 2010); assay type: functional, cell-based;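 also: cells exposed to compound for about 90 hours before reading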
[9] = viability loss in human Jurkat cells – cell-based, luminescence, cytotoxicity control for P. falciparum gametocyte viability project, dose response (AID 1117277); assay type: functional;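 also: potency reflects loss of cellular ATP meaning fewer viable cells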
Estrogen receptor beta = Estrogen receptor beta (Homo sapiens, UniProt Q92731);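 also: recombinant ER-beta bound to coactivator SRC1 peptide in presence of estradiol agonist; inhibitors block coactivator peptide binding and lower the FRET signal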
Beta Lactamase = Beta Lactamase (Pseudomonas aeruginosa, UniProt Q932Y6); experiment: BLA reporter interference, concentration series – BLA reporter cells, FRET fluorescence, artefact control for TLR9-MyD88 binding inhibitor project, dose response (AID 588341); assay type: cell-based;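 also: cell based assay in CHO-K1 cells stably expressing beta-lactamase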
[10] = biological target: Glucose-6-phosphate 1-dehydrogenase (Homo sapiens, UniProt P11413); experiment: inhibition of Homo sapiens G6PD, dose series – biochemical, fluorescence, selectivity assay for P. falciparum G6PD inhibitor project, dose response (AID 504792); assay type: functional
CHO = CHO cell viability loss, potency – luminescence, cytotoxicity control for TLR9-MyD88 binding inhibitor project, dose response (AID 588339); assay type: functional, cell-based, hamster; details: Cricetulus griseus;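 also: CHO cells stably coexpressing TLR9 and MyD88 fusions from primary screen; compound exposure lasted 48 hours before viability readout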
[11] = non-specific 3'UTR reporter inhibition in Clone20-Shn3RL – cell-based, Renilla luciferase, cherry-picked, counter-screen for Shn3 inhibitor project, dose response (AID 624133); assay type: functional
[12] = HIV-1 Vif–A3G interaction blockers – biochemical, TR-FRET, GST-Vif 1-94, biotin-A3G peptide, dose response retest, primary screen (AID 1117319); assay type: functional;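 also: TR-FRET signal of purified GST-Vif binding a biotinylated A3G peptide; inhibitors lower the FRET signal by blocking Vif and A3G binding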
[13] = biological target: T1, Rac GTPase-activating protein 1 (Homo sapiens, UniProt Q9H0H5); experiment: blockers of MgcRacGAP-driven Rac1 GTP hydrolysis – biochemical, ADP Hunter fluorescence, primary and confirmatory, confirmation (AID 624330); assay type: functional
T1 sequence (Q9H0H5 whole entry): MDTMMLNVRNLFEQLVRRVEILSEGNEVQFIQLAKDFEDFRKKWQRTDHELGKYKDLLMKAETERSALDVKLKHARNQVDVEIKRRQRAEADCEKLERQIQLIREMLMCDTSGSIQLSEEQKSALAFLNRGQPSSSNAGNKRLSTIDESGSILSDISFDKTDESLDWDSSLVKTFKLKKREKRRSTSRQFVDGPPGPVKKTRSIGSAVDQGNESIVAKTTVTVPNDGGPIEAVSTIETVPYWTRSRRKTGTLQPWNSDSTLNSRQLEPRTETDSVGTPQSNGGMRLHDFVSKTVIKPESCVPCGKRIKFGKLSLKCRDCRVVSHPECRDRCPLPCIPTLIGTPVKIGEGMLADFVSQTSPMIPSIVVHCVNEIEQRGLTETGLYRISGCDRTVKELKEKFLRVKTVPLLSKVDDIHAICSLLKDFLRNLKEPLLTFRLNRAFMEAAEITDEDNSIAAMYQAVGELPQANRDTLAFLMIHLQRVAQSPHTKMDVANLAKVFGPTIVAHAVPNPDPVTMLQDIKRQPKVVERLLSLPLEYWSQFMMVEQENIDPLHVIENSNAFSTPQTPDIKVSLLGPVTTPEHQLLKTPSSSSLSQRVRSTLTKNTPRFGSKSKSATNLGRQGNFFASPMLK

[14] = loss of viability in HepG2 cells – cell-based, CellTiter-Glo, cherry-picked, cytotoxicity control for Shn3 inhibitor project, dose response (AID 624134); assay type: functional
[15] = reduction of Shn3 3'UTR-driven luciferase in osteoblasts – cell-based, Clone20 osteoblasts, firefly luciferase, cherry-picked, dose response (AID 624132); assay type: functional;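 also: firefly luciferase luminescence from reporter carrying the Shn3 3'UTR in osteoblasts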
[16] = biological target: Eukaryotic translation initiation factor 4E (Mus musculus, UniProt P63073); experiment: blockers of eIF4G binding by eIF4E – biochemical, TR-FRET, dose response (AID 855); assay type: functional;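 also: potency for disrupting eIF4E binding to eIF4GI seen as loss of FRET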
[17] = viability loss in THP-1 monocytes – THP-1 cells, cytotoxicity control for Vif-APOBEC3G degradation inhibitor project, dose response (AID 1117359); assay type: functional; details: THP-1
CAAX prenyl protease 2 = biological target: T2, CAAX prenyl protease 2 (Saccharomyces cerevisiae S288c, UniProt Q03530); assay type: biochemical
T2 sequence (Q03530 whole entry): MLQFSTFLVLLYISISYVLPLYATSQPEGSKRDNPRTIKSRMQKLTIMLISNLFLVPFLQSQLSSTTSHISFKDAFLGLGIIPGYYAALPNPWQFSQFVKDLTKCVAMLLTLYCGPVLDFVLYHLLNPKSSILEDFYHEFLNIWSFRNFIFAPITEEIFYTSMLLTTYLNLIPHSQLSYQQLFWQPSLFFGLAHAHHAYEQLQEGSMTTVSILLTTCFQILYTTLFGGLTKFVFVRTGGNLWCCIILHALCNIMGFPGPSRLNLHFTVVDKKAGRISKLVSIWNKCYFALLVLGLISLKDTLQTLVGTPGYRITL

[18] = IC50 of insulin release inhibition, rat insulinoma INS-1E line, 5 mM glucose, cell-based (AID 1117331); assay type: functional
[19] = rise of 2N DNA cells, HeLa – IC50, dose response (AID 1117349); assay type: functional, cell-based
[20] = rise of 4N DNA cells, HeLa – IC50, dose response (AID 1117351); assay type: functional, cell-based
cells = assay type: functional, cell-based; details: INS-1E

Chain of Glucose-6-phosphate 1-dehydrogenase (P11413 whole entry, the tested form may be a part): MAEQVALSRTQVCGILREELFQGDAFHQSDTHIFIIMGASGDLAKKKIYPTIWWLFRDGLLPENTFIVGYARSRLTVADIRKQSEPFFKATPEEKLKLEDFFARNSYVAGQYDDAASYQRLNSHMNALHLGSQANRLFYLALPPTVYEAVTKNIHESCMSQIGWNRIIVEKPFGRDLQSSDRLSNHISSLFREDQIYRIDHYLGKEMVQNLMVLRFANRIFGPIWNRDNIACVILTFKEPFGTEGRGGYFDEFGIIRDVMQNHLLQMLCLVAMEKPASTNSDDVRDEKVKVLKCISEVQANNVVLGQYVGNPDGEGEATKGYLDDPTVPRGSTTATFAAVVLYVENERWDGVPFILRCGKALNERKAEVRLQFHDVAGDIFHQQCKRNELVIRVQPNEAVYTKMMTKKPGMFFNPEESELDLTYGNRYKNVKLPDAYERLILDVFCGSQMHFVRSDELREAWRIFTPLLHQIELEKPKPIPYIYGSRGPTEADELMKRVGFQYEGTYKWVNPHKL
Chain of 72 kDa type IV collagenase (P08253 whole entry): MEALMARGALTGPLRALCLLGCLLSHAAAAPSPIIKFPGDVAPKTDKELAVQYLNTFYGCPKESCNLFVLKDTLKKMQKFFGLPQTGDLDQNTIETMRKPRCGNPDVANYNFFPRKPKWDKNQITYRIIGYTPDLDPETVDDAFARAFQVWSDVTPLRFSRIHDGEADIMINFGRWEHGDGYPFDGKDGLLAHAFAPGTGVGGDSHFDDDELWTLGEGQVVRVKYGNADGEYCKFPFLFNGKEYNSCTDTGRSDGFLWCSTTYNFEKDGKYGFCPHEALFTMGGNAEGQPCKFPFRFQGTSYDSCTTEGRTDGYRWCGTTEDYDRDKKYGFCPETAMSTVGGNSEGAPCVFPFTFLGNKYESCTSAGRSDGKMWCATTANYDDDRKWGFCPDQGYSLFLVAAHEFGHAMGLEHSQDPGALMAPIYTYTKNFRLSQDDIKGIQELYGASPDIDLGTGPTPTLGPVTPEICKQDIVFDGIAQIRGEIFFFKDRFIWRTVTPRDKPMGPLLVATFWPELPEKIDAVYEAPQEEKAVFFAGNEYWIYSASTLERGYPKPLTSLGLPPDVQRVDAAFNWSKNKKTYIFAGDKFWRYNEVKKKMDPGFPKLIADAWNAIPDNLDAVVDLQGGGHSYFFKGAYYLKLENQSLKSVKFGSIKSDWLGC
Chain of Peroxisome proliferator-activated receptor gamma/Nuclear receptor coactivator 2 (P37231 whole entry): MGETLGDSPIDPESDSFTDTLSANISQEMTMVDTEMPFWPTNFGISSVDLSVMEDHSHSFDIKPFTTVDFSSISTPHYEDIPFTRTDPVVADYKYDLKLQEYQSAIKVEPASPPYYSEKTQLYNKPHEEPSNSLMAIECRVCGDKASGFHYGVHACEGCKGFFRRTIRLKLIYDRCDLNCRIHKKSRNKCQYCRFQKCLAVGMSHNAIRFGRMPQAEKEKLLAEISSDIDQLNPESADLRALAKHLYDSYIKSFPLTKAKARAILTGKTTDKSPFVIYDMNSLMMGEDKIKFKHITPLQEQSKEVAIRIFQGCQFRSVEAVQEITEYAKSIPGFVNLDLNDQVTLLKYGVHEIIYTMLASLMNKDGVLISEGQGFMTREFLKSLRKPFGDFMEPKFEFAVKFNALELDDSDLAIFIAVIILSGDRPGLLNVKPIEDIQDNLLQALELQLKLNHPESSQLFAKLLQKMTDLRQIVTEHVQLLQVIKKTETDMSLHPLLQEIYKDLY
Chain of Peroxisome proliferator-activated receptor gamma/Nuclear receptor coactivator 2 (Q15596 whole entry, further chain): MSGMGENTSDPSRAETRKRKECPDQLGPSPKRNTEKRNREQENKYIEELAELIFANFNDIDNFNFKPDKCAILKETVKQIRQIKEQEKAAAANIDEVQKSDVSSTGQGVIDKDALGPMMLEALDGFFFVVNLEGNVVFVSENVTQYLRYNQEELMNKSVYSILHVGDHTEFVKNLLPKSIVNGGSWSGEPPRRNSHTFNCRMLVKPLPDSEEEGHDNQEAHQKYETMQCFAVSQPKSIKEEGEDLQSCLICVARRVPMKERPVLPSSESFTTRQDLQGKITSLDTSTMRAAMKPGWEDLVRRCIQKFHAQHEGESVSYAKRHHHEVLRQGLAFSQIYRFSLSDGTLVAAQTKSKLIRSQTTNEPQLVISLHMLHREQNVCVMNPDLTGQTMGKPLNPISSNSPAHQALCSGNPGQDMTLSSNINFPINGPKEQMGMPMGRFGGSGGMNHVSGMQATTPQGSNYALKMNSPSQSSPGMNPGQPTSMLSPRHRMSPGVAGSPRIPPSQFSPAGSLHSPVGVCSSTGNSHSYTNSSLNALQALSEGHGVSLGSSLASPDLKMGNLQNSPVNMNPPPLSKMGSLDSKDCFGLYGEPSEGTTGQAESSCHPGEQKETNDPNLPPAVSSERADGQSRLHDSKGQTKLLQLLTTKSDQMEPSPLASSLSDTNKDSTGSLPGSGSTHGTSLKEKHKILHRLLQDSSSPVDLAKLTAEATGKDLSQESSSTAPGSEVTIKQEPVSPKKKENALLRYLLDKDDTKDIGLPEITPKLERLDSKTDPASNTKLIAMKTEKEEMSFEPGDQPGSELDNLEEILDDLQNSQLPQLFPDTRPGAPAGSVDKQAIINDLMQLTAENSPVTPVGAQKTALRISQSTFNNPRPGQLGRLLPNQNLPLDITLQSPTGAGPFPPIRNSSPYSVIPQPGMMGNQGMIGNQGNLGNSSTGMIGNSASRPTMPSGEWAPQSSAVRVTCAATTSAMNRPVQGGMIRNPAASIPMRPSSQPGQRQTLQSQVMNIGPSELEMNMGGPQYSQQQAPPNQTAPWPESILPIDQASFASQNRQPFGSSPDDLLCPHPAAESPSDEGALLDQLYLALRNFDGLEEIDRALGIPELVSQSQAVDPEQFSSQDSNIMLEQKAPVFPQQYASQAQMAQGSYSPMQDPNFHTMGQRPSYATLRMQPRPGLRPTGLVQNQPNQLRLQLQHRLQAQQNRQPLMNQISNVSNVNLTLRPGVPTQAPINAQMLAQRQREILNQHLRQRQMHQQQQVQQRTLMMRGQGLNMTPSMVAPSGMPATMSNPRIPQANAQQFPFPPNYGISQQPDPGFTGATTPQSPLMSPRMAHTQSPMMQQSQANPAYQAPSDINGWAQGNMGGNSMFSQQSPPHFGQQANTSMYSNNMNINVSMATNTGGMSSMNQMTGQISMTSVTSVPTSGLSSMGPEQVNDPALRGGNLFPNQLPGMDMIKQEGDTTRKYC
Chain of Peroxisome proliferator-activated receptor gamma/Nuclear receptor coactivator 1 (P37231 whole entry): as the sequence (P37231 whole entry) above
Chain of Peroxisome proliferator-activated receptor gamma/Nuclear receptor coactivator 1 (Q15788 whole entry, further chain): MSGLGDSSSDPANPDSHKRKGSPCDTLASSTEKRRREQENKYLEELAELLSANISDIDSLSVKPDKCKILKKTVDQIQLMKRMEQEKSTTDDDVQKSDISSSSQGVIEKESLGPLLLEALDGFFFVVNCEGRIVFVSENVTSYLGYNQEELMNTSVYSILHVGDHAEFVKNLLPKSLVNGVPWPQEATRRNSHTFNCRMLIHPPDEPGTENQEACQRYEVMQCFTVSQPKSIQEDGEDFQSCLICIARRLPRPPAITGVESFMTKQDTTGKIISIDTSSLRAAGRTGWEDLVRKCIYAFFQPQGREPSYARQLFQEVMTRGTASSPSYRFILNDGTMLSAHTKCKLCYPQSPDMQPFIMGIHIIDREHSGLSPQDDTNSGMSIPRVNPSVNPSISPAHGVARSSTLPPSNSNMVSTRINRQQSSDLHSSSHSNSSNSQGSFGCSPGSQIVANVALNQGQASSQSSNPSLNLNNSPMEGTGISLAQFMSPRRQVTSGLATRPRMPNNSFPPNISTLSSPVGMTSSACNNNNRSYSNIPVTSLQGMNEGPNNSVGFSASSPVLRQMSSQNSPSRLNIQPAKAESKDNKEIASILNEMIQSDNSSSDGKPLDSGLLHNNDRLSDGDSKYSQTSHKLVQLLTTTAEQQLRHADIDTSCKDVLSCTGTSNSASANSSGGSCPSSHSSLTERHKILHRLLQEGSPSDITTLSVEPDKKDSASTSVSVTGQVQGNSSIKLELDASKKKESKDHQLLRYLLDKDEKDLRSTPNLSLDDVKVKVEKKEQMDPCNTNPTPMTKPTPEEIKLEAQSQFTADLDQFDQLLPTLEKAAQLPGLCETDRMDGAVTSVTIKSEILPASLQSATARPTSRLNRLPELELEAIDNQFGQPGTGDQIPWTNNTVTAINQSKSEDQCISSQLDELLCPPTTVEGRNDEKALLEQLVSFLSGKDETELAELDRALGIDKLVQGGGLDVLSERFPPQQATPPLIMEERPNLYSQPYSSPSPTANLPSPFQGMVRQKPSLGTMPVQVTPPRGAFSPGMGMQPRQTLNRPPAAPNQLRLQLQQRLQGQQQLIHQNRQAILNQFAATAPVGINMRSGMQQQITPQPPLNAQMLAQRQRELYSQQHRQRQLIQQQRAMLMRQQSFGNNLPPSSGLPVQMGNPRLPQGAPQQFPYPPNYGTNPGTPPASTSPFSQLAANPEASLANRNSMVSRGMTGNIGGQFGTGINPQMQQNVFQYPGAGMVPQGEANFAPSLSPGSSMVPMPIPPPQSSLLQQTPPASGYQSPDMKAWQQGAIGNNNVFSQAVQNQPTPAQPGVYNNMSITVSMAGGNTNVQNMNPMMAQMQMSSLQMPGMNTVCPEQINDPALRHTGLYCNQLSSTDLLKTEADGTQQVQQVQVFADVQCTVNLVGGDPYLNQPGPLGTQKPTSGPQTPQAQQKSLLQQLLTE

CN(C)c1ccc(/C=C/C=C2/SC(=S)N(c3ccccc3)C2=O)cc1
IC50 (Nonstructural protein 1): 5.48 µM (active) | IC50 [1]: > 100 µM (inactive) | EC50 [2]: > 79.4 µM (inactive) | EC50 [3]: > 79.4 µM (not active) | IC50 (Ephrin type-A receptor 4): 0.6 µM (active) | IC50 [4]: 0.703 µM (active) | EC50 [5]: > 79.4 µM (not active) | IC50 (Prothrombin): 0.529 µM (active)

CC(C)C(Nc1ncnc2c1oc1ccccc12)C(=O)O (stereo not drawn)
EC50 [6]: 12.6 µM (active) | IC50 [7]: > 109 µM (inactive) | EC50 [8]: 10.8 µM (active) | IC50 [9]: > 83.3 µM (inactive)

C[C@]12CCC(=O)C=C1CCC1C2CC[C@@]2(C)C1CC[C@@]2(O)CC#N (stereo partly drawn)
IC50 (Estrogen receptor beta): > 50 µM (not active)

COc1cc(N2C(=O)C=CC2=O)ccc1N1C(=O)C=CC1=O
IC50 (Beta Lactamase): 11 µM (inactive) | IC50 [10]: 57.4 µM (inactive) | IC50 (CHO): 1.59 µM (active) | AC50 [11]: 12.5 µM (active) | IC50 [12]: > 100 µM (active) | IC50 [13]: 53.8 µM (active) | AC50 [14]: 15.8 µM (active) | AC50 [15]: 2.32 µM (active)

CCn1c(SCC(=O)NCc2ccc3c(c2)OCO3)nnc1-c1cccs1
IC50 [12]: > 100 µM (active) | IC50 [16]: > 64 µM (inactive)

COC(=O)C1CCCN1S(=O)(=O)c1ccc2ccccc2c1 (stereo not drawn)
CC50 [17]: > 40 µM (active) | AC50 (CAAX prenyl protease 2): 8.28 µM (active)

CSc1ccc2c(c1)C(N1CCN(C)CC1)Cc1ccccc1S2 (stereo not drawn) [METITEPINE]
IC50 [18]: 2.94 µM (active) | IC50 [19]: > 10 µM (inactive) | IC50 [20]: > 10 µM (inactive) | IC50 (cells): > 33.3 µM (inactive)

CCCNCC(O)COc1ccccc1C(=O)CCc1ccccc1 (stereo not drawn) [PROPAFENONE]
IC50 [18]: 4.92 µM (active) | IC50 [19]: > 10 µM (inactive) | IC50 [20]: > 10 µM (inactive) | IC50 (cells): > 33.3 µM (inactive)

— ChEMBL document CHEMBL1201862, “PubChem BioAssay data set” (2004)
